From US9220700B2, “Cysteine for physiological injection” (Cornell University, priority 2009, dated 2015)

Experiments:
[1] = system: neuromuscular blockade produced by CW002; assay: Reversal of CW002 neuromuscular blockade (recovery of muscle twitch) by cysteine in anesthetized beagles; assay type: in vivo; conditions: 0.08 mg/kg CW002, cysteine given 1 minute after CW002
Method: Three anesthetized male beagles received CW002. After 1 minute and complete loss of muscle twitch, D-cysteine was administered at dosages of 10, 20, 50 or 100 mg/kg. Each dose was given as a single experiment separated from other experiments by at least 7 days. The rate and time to complete recovery of muscle twitch in each animal was determined.

[2] = system: neuromuscular blockade; assay: Reversibility of neuromuscular blockade effects by administration of thiol compounds; assay type: in vivo; conditions: administration of thiol compounds such as cysteine (L or D) or glutathione
[3] = system: rats; assay: L-cysteine toxicology in rats; assay type: in vivo; conditions: conscious rats; bolus injections of 750 mg/kg intravenously
Excerpt: This Example describes toxicology studies performed using FDA guidelines.

[4] = system: neuromuscular blockade produced by CW002; conditions: previous study (Sunaga et al.); cited from earlier work
[5] = system: anesthetized male beagles; conditions: 100 mg/kg; previous work by the inventors; cited from earlier work
[6] = Natural pH, solubility and precipitation of cysteine solutions (general statements); assay type: physicochemical

For `N[C@H](CS)C(=O)O` [D-cysteine], the “Dose range effective for reversal of CW002” value [1] was 30 to 50 mg/kg.

With `COc1ccc(CC2c3cc(OC)c(OC)cc3CC[N+]2(C)CCCOC(=O)/C=C/C(=O)OCCC[N+]2(C)CCc3cc(OC)c(OC)cc3C2Cc2ccc(OC)c(OC)c2)cc1OC` (centres unmarked) [CW002] the “Reversibility of neuromuscular blockade effects by thiol compounds” value [2] was “reversible”.

In the case of `N[C@@H](CS)C(=O)O` [L-cysteine], the “Clinical, biochemical, or histological evidence of organ toxicity” value [3] is given as “No animals exhibited clinical, biochemical, or histological evidence of organ toxicity”, the “Dose range effective for reversal of CW002 (previously described)” value [4] is given as 30 to 50 mg/kg and the “Effect on blood pressure (previous work)” value [5] is given as “modest increase in blood pressure”.

With `COc1ccc(C[C@@H]2c3cc(OC)c(OC)cc3CC[N@@+]2(C)CCCOC(=O)/C=C\C(=O)OCCC[N@+]2(C)CCc3cc(OC)c(OC)cc3[C@H]2Cc2cc(OC)c(OC)c(OC)c2)cc1OC` [CW 011] the “Reversibility of neuromuscular blockade effects by thiol compounds” value [2] was “reversible”.

For `N[C@@H](CS)C(=O)O` [cysteine], the solubility ([6]; base form, read-out: Solubility of cysteine in its base form) was ≤ 50 mg/mL and the “Precipitation of cysteine solutions adjusted with sodium hydroxide” value ([6]; pH values above 3) was “rapid cystine precipitation”.
